{"source": "ChEMBL document CHEMBL2021794", "about": "“Synthesis, σ₁, σ₂-receptors binding affinity and antiproliferative action of new C1-substituted adamantanes” (Bioorg Med Chem, 2012)", "key": {"[1]": {"system": "SK-HEP1", "assay": "Growth inhibition of human SKHEP1 cells after 48 hrs by SRB assay", "format": "functional", "details": "SK-HEP1, 48 h"}, "[2]": {"system": "PC-3", "assay": "Induction of apoptosis in human PC3 cells assessed as healthy cells at 0.5 uM after 24 hrs by Annexin V/7-AAD staining based flow cytometry (reference value: 92%)", "format": "functional"}, "[3]": {"system": "PC-3", "assay": "Cell cycle arrest in human PC3 cells assessed as accumulation at >G2 phase at 50 uM after 24 hrs by propidium iodide staining based flow cytometry (reference value: 6%)", "format": "functional"}, "[4]": {"system": "PC-3", "assay": "Induction of apoptosis in human PC3 cells assessed as early apoptotic cells at 15 uM after 24 hrs by Annexin V/7-AAD staining based flow cytometry (reference value: 5%)", "format": "functional"}, "[5]": {"system": "IGROV-1", "assay": "Cell cycle arrest in human IGROV1 cells assessed as accumulation at G1 phase at 15 uM after 24 hrs by propidium iodide staining based flow cytometry (reference value: 27%)", "format": "functional"}, "[6]": {"system": "BXPC-3", "assay": "Cell cycle arrest in human BxPC3 cells assessed as accumulation at G1 phase at 15 uM after 24 hrs by propidium iodide staining based flow cytometry (reference value: 41%)", "format": "functional"}, "[7]": {"system": "Mus musculus", "assay": "Analgesic activity against formalin-induced neuropathic pain in paclitaxel treated CD1 mouse assessed as decrease of time spent in paw licking at 100 mg/kg, po administered 14 days post paclitaxel dosing and 1 hr prior formalin challenge measured for 0 to 5 mins post formalin challenge", "format": "functional, organism-based", "parameters": "dose 100 mg/kg"}, "[8]": {"assay": "(§1) Growth inhibition of HUVEC cells after 48 hrs by SRB assay", "format": "cell-based", "details": "human, HUVEC cells"}, "[9]": {"system": "HUVEC", "assay": "as §1", "format": "cell-based", "details": "human, huvec, 48 h"}, "[10]": {"system": "BXPC-3", "assay": "Cell cycle arrest in human BxPC3 cells assessed as accumulation at S phase at 15 uM after 24 hrs by propidium iodide staining based flow cytometry (reference value: 33%)", "format": "functional"}, "[11]": {"system": "PC-3", "assay": "Cell cycle arrest in human PC3 cells assessed as accumulation at G2 phase at 5 uM after 24 hrs by propidium iodide staining based flow cytometry (reference value: 13%)", "format": "functional"}, "[12]": {"system": "IGROV-1", "assay": "Cell cycle arrest in human IGROV1 cells assessed as accumulation at S phase at 0.5 uM after 24 hrs by propidium iodide staining based flow cytometry (reference value: 29%)", "format": "functional"}, "[13]": {"system": "BXPC-3", "assay": "Cell cycle arrest in human BxPC3 cells assessed as accumulation at < G1 phase at 0.5 uM after 24 hrs by propidium iodide staining based flow cytometry (reference value: 9%)", "format": "functional"}, "[14]": {"system": "IGROV-1", "assay": "Induction of apoptosis in human IGROV1 cells assessed as early apoptotic cells at 15 uM after 24 hrs by Annexin V/7-AAD staining based flow cytometry (reference value: 9%)", "format": "functional"}, "[15]": {"system": "PC-3", "assay": "Induction of apoptosis in human PC3 cells assessed as late apoptotic cells at 50 uM after 24 hrs by Annexin V/7-AAD staining based flow cytometry (reference value: 2%)", "format": "functional"}, "[16]": {"system": "PC-3", "assay": "Induction of apoptosis in human PC3 cells assessed as healthy cells at 5 uM after 24 hrs by Annexin V/7-AAD staining based flow cytometry (reference value: 92%)", "format": "functional"}, "[17]": {"system": "PC-3", "assay": "Induction of apoptosis in human PC3 cells assessed as cleaved caspase-3 containing cells at 0.5 uM after 24 hrs by FACS analysis (reference value: 3%)", "format": "functional"}, "[18]": {"system": "IGROV-1", "assay": "Induction of apoptosis in human IGROV1 cells assessed as total apoptotic death cells at 0.5 uM after 24 hrs by Annexin V/7-AAD staining based flow cytometry (reference value: 13%)", "format": "functional"}, "[19]": {"system": "BXPC-3", "assay": "Cell cycle arrest in human BxPC3 cells assessed as accumulation at >G2 phase at 0.5 uM after 24 hrs by propidium iodide staining based flow cytometry (reference value: 6%)", "format": "functional"}, "[20]": {"system": "BXPC-3", "assay": "Induction of apoptosis in human BxPC3 cells assessed as cleaved caspase-3 containing cells at 50 uM after 24 hrs by FACS analysis (reference value: 10%)", "format": "functional"}, "[21]": {"system": "PC-3", "assay": "Cell cycle arrest in human PC3 cells assessed as accumulation at G1 phase at 5 uM after 24 hrs by propidium iodide staining based flow cytometry (reference value: 36%)", "format": "functional"}, "[22]": {"system": "IGROV-1", "assay": "Induction of apoptosis in human IGROV1 cells assessed as cleaved caspase-3 containing cells at 0.5 uM after 24 hrs by FACS analysis (reference value: 4%)", "format": "functional"}, "[23]": {"system": "PC-3", "assay": "Cell cycle arrest in human PC3 cells assessed as accumulation at < G1 phase at 5 uM after 24 hrs by propidium iodide staining based flow cytometry (reference value: 4%)", "format": "functional"}, "[24]": {"system": "PC-3", "assay": "Cytotoxicity against human PC3 cells after 48 hrs by trypan blue assay", "format": "functional, cell-based"}, "[25]": {"system": "PC-3", "assay": "Induction of apoptosis in human PC3 cells assessed as early apoptotic cells at 5 uM after 24 hrs by Annexin V/7-AAD staining based flow cytometry (reference value: 5%)", "format": "functional"}, "[26]": {"system": "IGROV-1", "assay": "Cell cycle arrest in human IGROV1 cells assessed as accumulation at S phase at 15 uM after 24 hrs by propidium iodide staining based flow cytometry (reference value: 29%)", "format": "functional"}, "[27]": {"system": "PC-3", "assay": "Induction of apoptosis in human PC3 cells assessed as cleaved caspase-3 containing cells at 15 uM after 24 hrs by FACS analysis (reference value: 3%)", "format": "functional"}, "[28]": {"system": "BXPC-3", "assay": "Induction of apoptosis in human BxPC3 cells assessed as total apoptotic death cells at 50 uM after 24 hrs by Annexin V/7-AAD staining based flow cytometry (reference value: 20%)", "format": "functional"}, "[29]": {"system": "BXPC-3", "assay": "Induction of apoptosis in human BxPC3 cells assessed as healthy cells at 5 uM after 24 hrs by Annexin V/7-AAD staining based flow cytometry (reference value: 77%)", "format": "functional"}, "[30]": {"system": "BXPC-3", "assay": "Induction of apoptosis in human BxPC3 cells assessed as healthy cells at 0.5 uM after 24 hrs by Annexin V/7-AAD staining based flow cytometry (reference value: 77%)", "format": "functional"}, "[31]": {"target": "Sigma non-opioid intracellular receptor 1 (Homo sapiens, UniProt Q99720)", "sequence (Q99720 whole entry)": "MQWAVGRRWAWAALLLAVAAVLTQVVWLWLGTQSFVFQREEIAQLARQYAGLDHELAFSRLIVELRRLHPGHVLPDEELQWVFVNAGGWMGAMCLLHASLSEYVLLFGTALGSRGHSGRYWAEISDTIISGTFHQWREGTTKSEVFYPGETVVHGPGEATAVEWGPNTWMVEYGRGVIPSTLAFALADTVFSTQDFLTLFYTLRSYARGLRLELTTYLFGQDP", "assay": "Displacement of [3H](+)pentazocine from sigma-1 receptor expressed in human Jurkat cell membranes after 2 hrs by liquid scintillation spectroscopy"}, "[32]": {"system": "BXPC-3", "assay": "Cell cycle arrest in human BxPC3 cells assessed as accumulation at < G1 phase at 5 uM after 24 hrs by propidium iodide staining based flow cytometry (reference value: 9%)", "format": "functional"}, "[33]": {"system": "PC-3", "assay": "Induction of apoptosis in human PC3 cells assessed as early apoptotic cells at 50 uM after 24 hrs by Annexin V/7-AAD staining based flow cytometry (reference value: 5%)", "format": "functional"}, "[34]": {"system": "BXPC-3", "assay": "Cell cycle arrest in human BxPC3 cells assessed as accumulation at G2 phase at 15 uM after 24 hrs by propidium iodide staining based flow cytometry (reference value: 12%)", "format": "functional"}, "[35]": {"system": "BXPC-3", "assay": "Cell cycle arrest in human BxPC3 cells assessed as accumulation at G2 phase at 50 uM after 24 hrs by propidium iodide staining based flow cytometry (reference value: 12%)", "format": "functional"}, "[36]": {"system": "BXPC-3", "assay": "Induction of apoptosis in human BxPC3 cells assessed as healthy cells at 15 uM after 24 hrs by Annexin V/7-AAD staining based flow cytometry (reference value: 77%)", "format": "functional"}, "[37]": {"assay": "Displacement of [3H](+)1-DTG from sigma-2 receptor expressed in rat cerebral cortex membranes after 2 hrs by liquid scintillation spectroscopy", "format": "cell membranes, Membrane"}, "[38]": {"system": "PC-3", "assay": "Induction of apoptosis in human PC3 cells assessed as healthy cells at 50 uM after 24 hrs by Annexin V/7-AAD staining based flow cytometry (reference value: 92%)", "format": "functional"}}, "note": "The source made the active and inactive calls. The calls are words filed in the database; no cut-off is given here."}
{"smiles": "CN1CCN(c2ccc(C(c3ccccc3)C34CC5CC(CC(C5)C3)C4)cc2)CC1", "note": "(stereo unspecified)", "values": [{"measurement": "GI50", "setting": "[1]", "result": 6.05, "unit": "µM"}, {"measurement": "TGI", "setting": "[1]", "result": 28.4, "unit": "µM"}, {"measurement": "CC50", "setting": "[1]; read-out: LC50 (the source's name)", "result": 77.6, "unit": "µM"}, {"measurement": "Activity", "setting": "[2]", "result": 95, "unit": "%"}, {"measurement": "Activity", "setting": "[3]", "result": 11, "unit": "%"}, {"measurement": "Activity", "setting": "[4]", "result": 6, "unit": "%"}, {"measurement": "Activity", "setting": "[5]", "result": 21, "unit": "%"}, {"measurement": "Activity", "setting": "[6]", "result": 51, "unit": "%"}, {"measurement": "Activity", "setting": "[7]", "result": "Active"}, {"measurement": "GI50 at 48 h", "setting": "[8]", "result": 4.52, "unit": "µM"}, {"measurement": "LC50", "setting": "[9]", "result": 10.34, "unit": "µM"}, {"measurement": "TGI", "setting": "[9]", "result": 7.43, "unit": "µM"}, {"measurement": "Activity", "setting": "[10]", "result": 19, "unit": "%"}, {"measurement": "Activity", "setting": "[11]", "result": 13, "unit": "%"}, {"measurement": "Activity", "setting": "[12]", "result": 28, "unit": "%"}, {"measurement": "Activity", "setting": "[13]", "result": 11, "unit": "%"}, {"measurement": "Activity", "setting": "[14]", "result": 18, "unit": "%"}, {"measurement": "Activity", "setting": "[15]", "result": 9, "unit": "%"}, {"measurement": "Activity", "setting": "[16]", "result": 92, "unit": "%"}, {"measurement": "Activity", "setting": "[17]", "result": 1, "unit": "%"}, {"measurement": "Activity", "setting": "[18]", "result": 10, "unit": "%"}, {"measurement": "Activity", "setting": "[19]", "result": 8, "unit": "%"}, {"measurement": "Activity", "setting": "[20]", "result": 16, "unit": "%"}, {"measurement": "Activity", "setting": "[21]", "result": 34, "unit": "%"}, {"measurement": "Activity", "setting": "[22]", "result": 5, "unit": "%"}, {"measurement": "Activity", "setting": "[23]", "result": 9, "unit": "%"}, {"measurement": "Activity", "setting": "[24]", "result": "Active"}, {"measurement": "Activity", "setting": "[25]", "result": 5, "unit": "%"}, {"measurement": "Activity", "setting": "[26]", "result": 27, "unit": "%"}, {"measurement": "Activity", "setting": "[27]", "result": 3, "unit": "%"}, {"measurement": "Activity", "setting": "[28]", "result": 48, "unit": "%"}, {"measurement": "Activity", "setting": "[29]", "result": 65, "unit": "%"}, {"measurement": "Activity", "setting": "[30]", "result": 84, "unit": "%"}, {"measurement": "IC50", "setting": "[31]", "result": 0.0032, "unit": "µM"}, {"measurement": "Activity", "setting": "[32]", "result": 8, "unit": "%"}, {"measurement": "Activity", "setting": "[33]", "result": 24, "unit": "%"}, {"measurement": "Activity", "setting": "[34]", "result": 16, "unit": "%"}, {"measurement": "Activity", "setting": "[35]", "result": 13, "unit": "%"}, {"measurement": "Activity", "setting": "[36]", "result": 60, "unit": "%"}, {"measurement": "IC50", "setting": "[37]", "result": 0.0376, "unit": "µM"}, {"measurement": "Activity", "setting": "[38]", "result": 61, "unit": "%"}]}
